Laboratory results from patent EP1247803A2, “Indolinone compounds suitable for modulation of protein kinases” (Sugen, Inc., priority 1996, dated 1998).

Target: T1, FLK-1 receptor (Mus musculus, UniProt P35918)
T1 construct: expressed in transfected cells; host or cells: NIH3T3 C7#3
Assay: FLK-1 ELISA (kinase activity of the FLK-1 receptor in FLK-1/NIH3T3 cells, VEGF stimulated)
Assay type: cell-based
In short: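 An ELISA using affinity-purified rabbit anti-FLK-1 antiserum on anti-rabbit IgG-coated plates measured VEGF-stimulated FLK-1 kinase activity. NIH3T3 C7#3 cells carrying FLK-1 were serum-starved (0.1% FBS) overnight, then exposed to compound (final 1:200 dilution, 0.5% DMSO) for two hours at 37 °C.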

T1 sequence (P35918 20-1345): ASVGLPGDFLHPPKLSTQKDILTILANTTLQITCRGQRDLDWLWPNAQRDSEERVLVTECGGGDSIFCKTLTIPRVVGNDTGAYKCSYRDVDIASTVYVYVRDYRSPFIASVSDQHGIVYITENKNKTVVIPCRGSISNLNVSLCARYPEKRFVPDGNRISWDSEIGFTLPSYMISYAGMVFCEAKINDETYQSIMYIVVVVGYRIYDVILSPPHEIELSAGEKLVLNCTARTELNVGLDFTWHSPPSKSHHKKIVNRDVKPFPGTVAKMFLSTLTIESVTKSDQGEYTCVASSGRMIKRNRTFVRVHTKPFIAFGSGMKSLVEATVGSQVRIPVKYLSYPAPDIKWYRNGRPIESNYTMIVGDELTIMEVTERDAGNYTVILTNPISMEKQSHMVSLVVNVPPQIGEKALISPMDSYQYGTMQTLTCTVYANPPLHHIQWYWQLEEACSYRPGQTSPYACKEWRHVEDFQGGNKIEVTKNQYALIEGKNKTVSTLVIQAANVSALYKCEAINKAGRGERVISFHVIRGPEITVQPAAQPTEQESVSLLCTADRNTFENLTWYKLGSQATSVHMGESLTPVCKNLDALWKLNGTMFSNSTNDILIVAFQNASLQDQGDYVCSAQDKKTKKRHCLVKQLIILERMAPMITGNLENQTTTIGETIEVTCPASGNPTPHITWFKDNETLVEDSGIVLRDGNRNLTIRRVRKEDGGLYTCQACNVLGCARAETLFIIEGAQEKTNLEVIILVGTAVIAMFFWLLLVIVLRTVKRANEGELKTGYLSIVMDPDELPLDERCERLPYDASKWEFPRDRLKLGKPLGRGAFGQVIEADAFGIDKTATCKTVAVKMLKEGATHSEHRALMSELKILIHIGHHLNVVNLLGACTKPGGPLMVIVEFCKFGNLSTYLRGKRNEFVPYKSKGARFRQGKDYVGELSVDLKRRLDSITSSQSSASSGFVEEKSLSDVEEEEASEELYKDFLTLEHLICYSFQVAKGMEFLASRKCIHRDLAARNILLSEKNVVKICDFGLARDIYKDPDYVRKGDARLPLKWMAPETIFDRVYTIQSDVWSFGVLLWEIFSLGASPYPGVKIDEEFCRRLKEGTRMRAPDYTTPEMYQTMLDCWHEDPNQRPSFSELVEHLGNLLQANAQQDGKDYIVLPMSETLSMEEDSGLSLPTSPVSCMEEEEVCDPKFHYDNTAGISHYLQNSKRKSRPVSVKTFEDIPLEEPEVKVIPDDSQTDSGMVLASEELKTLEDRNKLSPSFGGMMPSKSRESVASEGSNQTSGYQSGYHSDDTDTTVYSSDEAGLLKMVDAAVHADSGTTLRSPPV

Compound: CNS(=O)(=O)c1ccc2c(c1)C(=Cc1cc(Br)c(O)c(C(C)(C)C)c1)C(=O)N2 [10721/D10]
- Fik Kinase %Inhibition: 23.7%

Compound: Cn1c(C=C2C(=O)Nc3ccc(CCCl)cc32)nc2ccccc21 [10721/G02]
- Fik Kinase %Inhibition: 16.4%

Compound: O=C1Nc2ccc(I)cc2C1=Cc1ccc([N+](=O)[O-])s1 [10722/B04]
- Fik Kinase %Inhibition: 14.7%

Compound: O=C1Nc2ccc(I)cc2C1=Cc1c(O)cc(O)cc1O [10722/B03]
- Fik Kinase %Inhibition: 13.6%

Compound: CNS(=O)(=O)c1ccc2c(c1)C(=Cc1cc(Cl)c(O)c(C(C)(C)C)c1)C(=O)N2 [10722/D08]
- Fik Kinase %Inhibition: 29.1%

Compound: O=C1Nc2ccc(I)cc2C1=Cc1ccc(F)cc1F [10722/B06]
- Fik Kinase %Inhibition: 13.9%
